{"source": "paper PMC5924617", "about": "(European journal of medicinal chemistry, 2018)", "key": {"[1]": {"test_system": "innate immune genes including ISG54, ISG56, IL-8 and Groβ", "assay": "poly", "format": "cell-based, human", "settings": "for Inhibitory rates on immune genes' expression (all genes, text): 10 μM compound, ISG54, ISG56, IL-8, Groβ in hSAECs; for IC50: Homo sapiens, read-out: IC50 against all innate immune genes (range)"}, "ISG56": {"test_system": "ISG56", "assay": "poly", "format": "cell-based, human", "settings": "for Inhibitory rate (%) of ISG56 expression: 10 μM compound, poly(I:C)-induced, hSAECs; for inhibition at 10 µM: Homo sapiens, read-out: Inhibitory rate (%) of ISG56 expression"}, "Groβ": {"test_system": "Groβ", "assay": "poly", "format": "cell-based, human", "settings": "for Inhibitory rate (%) of Groβ expression: 10 μM compound, poly(I:C)-induced, hSAECs; for inhibition at 10 µM: Homo sapiens, read-out: Inhibitory rate (%) of Groβ expression"}, "IL-8": {"test_system": "IL-8", "assay": "poly", "format": "cell-based, human", "settings": "for inhibition at 10 µM: Homo sapiens, read-out: Inhibitory rate (%) of IL-8 expression"}, "ISG54": {"test_system": "ISG54", "assay": "poly", "format": "cell-based, human"}, "[2]": {"assay": "In vivo pharmacokinetic profile in rats", "settings": "PO 20 mg/kg"}, "[3]": {"test_system": "various receptors and enzymes including kinases such as IKK", "assay": "Eurofins Cerep panel assays, off-target effects", "settings": "tested concentration 10 μM; Table S1"}, "[4]": {"assay": "Daily administration over one month in mice, toxicity", "settings": "compound-treated mice"}, "[5]": {"settings": "10 μM compound, poly(I:C)-induced, hSAECs"}}}
{"compound": "Cc1cc(/N=N/c2ccc(N3CCS(=O)(=O)CC3)cc2)c(N)cc1O", "note": "[Compound 33, (E)-4-(4-((2-Amino-4-hydroxy-5-methylphenyl)diazenyl)phenyl)thiomorpholine 1,1-dioxide]", "values": [{"measurement": "Inhibitory rates on immune genes' expression (all genes, text)", "setting": "[1]", "result": "inactive"}]}
{"compound": "COC(=O)[C@@H]1CCCN1S(=O)(=O)c1ccc(NC(=O)c2ccc(C(F)(F)F)cc2)cc1", "note": "[Compound 14, Methyl ((4-(4-(trifluoromethyl)benzamido)phenyl)sulfonyl)-L-prolinate]", "values": [{"measurement": "Inhibitory rates on immune genes' expression (all genes, text)", "setting": "[1]", "result": "completely lost its activity"}]}
{"compound": "COC(=O)[C@@H]1CCCN1S(=O)(=O)c1ccc(N(C(=O)c2ccc(F)cc2)C(=O)c2ccc(F)cc2)cc1", "note": "[Compound 13, Methyl ((4-(4-fluoro-N-(4-fluorobenzoyl)benzamido)phenyl)sulfonyl)-L-prolinate]", "values": [{"measurement": "Inhibitory rates on immune genes' expression (all genes, text)", "setting": "[1]", "result": "around 90%"}]}
{"compound": "5-Chloro-2-methoxy-N-(2-oxo-1,2,3,4-tetrahydroquinolin-6-yl)benzenesulfonamide [Compound 26]", "values": [{"measurement": "Inhibitory rate (%) of ISG56 expression", "setting": "ISG56", "result": 56, "unit": "%"}, {"measurement": "Inhibitory rate (%) of Groβ expression", "setting": "Groβ", "result": 56, "unit": "%"}]}
{"compound": "O=C1CCc2cc(NS(=O)(=O)c3ccc([N+](=O)[O-])cc3)ccc2N1", "note": "[Compound 27, 4-Nitro-N-(2-oxo-1,2,3,4-tetrahydroquinolin-6-yl)benzenesulfonamide]", "values": [{"measurement": "inhibition at 10 µM", "setting": "IL-8", "result": -32, "unit": "%"}]}
{"compound": "Methyl ((4-(5-(furan-3-yl)isoxazole-3-carboxamido)phenyl)sulfonyl)-L-prolinate [Compound 12]", "values": [{"measurement": "Inhibitory rate (%) of ISG54 expression", "setting": "ISG54; [5]", "result": "−114", "unit": "%"}, {"measurement": "Inhibitory rate (%) of ISG56 expression", "setting": "ISG56", "result": "−93", "unit": "%"}, {"measurement": "Inhibitory rate (%) of IL-8 expression", "setting": "IL-8; [5]", "result": "−86", "unit": "%"}, {"measurement": "Inhibitory rate (%) of Groβ expression", "setting": "Groβ", "result": "−98", "unit": "%"}]}
{"compound": "Cc1sc2c(c1C)C(c1ccc(Cl)cc1)=N[C@@H](CC(=O)OC(C)(C)C)c1nnc(C)n1-2", "note": "[(+)-JQ1, reference compound]", "values": [{"measurement": "IC50", "setting": "[1]", "result": "1380 to 3850", "unit": "nM"}]}
{"compound": "CCCc1cc(C(=O)Nc2ccc(S(=O)(=O)N3CCC[C@H]3C(=O)OC)cc2)no1", "note": "[Compound 11, Methyl ((4-(5-propylisoxazole-3-carboxamido)phenyl)sulfonyl)-L-prolinate]", "values": [{"measurement": "inhibition at 10 µM", "setting": "ISG54; Homo sapiens, read-out: Inhibitory rate (%) of ISG54 expression", "result": -62, "unit": "%"}, {"measurement": "inhibition at 10 µM", "setting": "ISG56", "result": -73, "unit": "%"}, {"measurement": "inhibition at 10 µM", "setting": "IL-8", "result": -61, "unit": "%"}, {"measurement": "inhibition at 10 µM", "setting": "Groβ", "result": -57, "unit": "%"}]}
{"compound": "Cc1cc(/N=N/c2ccc3c(c2)CCC(=O)N3)c(N)cc1O", "note": "[Compound 28, (E)-6-((2-Amino-4-hydroxy-5-methylphenyl)diazenyl)-3,4-dihydroquinolin-2(1H)-one]", "values": [{"measurement": "IC50", "setting": "[1]", "result": "490 to 860", "unit": "nM"}, {"measurement": "Oral bioavailability", "setting": "[2]", "result": "not favorable"}]}
{"compound": "Cc1cc(/N=N/c2ccc(S(=O)(=O)NC3CCCC3)cc2)c(N)cc1O", "note": "[Compound 35, (E)-4-((2-Amino-4-hydroxy-5-methylphenyl)diazenyl)-N-cyclopentylbenzenesulfonamide]", "values": [{"measurement": "IC50", "setting": "[1]", "result": "490 to 860", "unit": "nM"}, {"measurement": "Oral bioavailability", "setting": "[2]", "result": "not favorable"}, {"measurement": "Off-target effects", "setting": "[3]", "result": "No significant off-target effects"}, {"measurement": "Effects on hepatic, renal or pulmonary tissues, histological examination", "setting": "[4]", "result": "No discernable effects"}]}
{"compound": "COC(=O)[C@@H]1CCCN1S(=O)(=O)c1ccc(NCc2ccc(O)cc2)cc1", "note": "[Compound 15, Methyl ((4-((4-hydroxybenzyl)amino)phenyl)sulfonyl)-L-prolinate]", "values": [{"measurement": "inhibition at 10 µM", "setting": "ISG56", "result": -17, "unit": "%"}, {"measurement": "inhibition at 10 µM", "setting": "Groβ", "result": -12, "unit": "%"}]}
